From US20090012125A1, “Piperidine Derivatives, Their Process for Preparation, Their Use as Therapeutic Agents and Pharmaceutical Compositions Containing Them” (priority 2006, published 2009) come the findings set out here.

Data set [1] can be described thus: Intrinsic clearance with human liver microsomes. Format: in vitro ADME. As to conditions: human liver microsomes 1 mg protein/ml, NADPH, pH 7.4. On the procedure: Determination of Intrinsic Clearance with Human Liver Microsomes
Frozen human liver microsomes (BD Gentest, Oxford) were defrosted and were then diluted with 0.1 M pH 7.4 phosphate buffer at 4° C. to 1 mg protein/ml. 0.45 mL aliquots of the microsome suspension were dispensed into flat-bottomed vials (1 per compound) and were allowed to come to room temperature (5 min). During the warming time, 5 μL of solution of each test compound (typically 100 μM in DMSO) was dispensed into separate vials resulting in a final DMSO concentration of 1%. 50 μL of a 10 mM solution of NADPH in phosphate buffer (0.1 M pH 7.4, 37° C.) was added to each vial to initiate metabolism.
50 μL Aliquots of the mixtures were removed at measured intervals and were immediately quenched by addition to 100 μL of methanol cooled in ice. The quenched samples were kept cold (at −20° C. or less) for at least 1 h and were then centrifuged to remove protein
The supernatant solution was analysed using quantitative LCMS for the presence of test compound. From the concentrations of test compound at different time points a T1/2 may be calculated which may be converted to an intrinsic clearance using the equation: CLint=ln 2/T1/2.
In general terms: Liver microsomes are vesicles of endoplasmic reticulum, rich in cytochrome P450 enzymes.

In data set [2] the target is T1, human recombinant CCR3 receptors (Homo sapiens, UniProt P51677).
T1 construct: expressed in transfected cells
T1 sequence (P51677 1-355): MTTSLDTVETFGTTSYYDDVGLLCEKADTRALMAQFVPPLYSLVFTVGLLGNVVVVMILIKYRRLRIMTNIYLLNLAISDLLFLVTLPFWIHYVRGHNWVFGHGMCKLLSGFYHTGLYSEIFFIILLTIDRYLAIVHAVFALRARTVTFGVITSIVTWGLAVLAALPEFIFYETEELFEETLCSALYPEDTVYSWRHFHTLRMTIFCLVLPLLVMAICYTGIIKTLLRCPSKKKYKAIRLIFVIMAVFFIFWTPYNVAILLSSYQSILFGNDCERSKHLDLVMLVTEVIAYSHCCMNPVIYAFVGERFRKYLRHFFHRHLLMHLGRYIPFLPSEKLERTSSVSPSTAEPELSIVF
As to the kind of experiment: Compound affinity at human recombinant CCR3 receptors by radioligand competition, CHO-K1 cell membranes. To be noted: mean of minimum 2 experiments; Cheng-Prussof correction of pIC50; 2 nM [3H] radioligand, 2 h at 37° C.; read-out: CCR3 pKi (converted). The format is binding. On the procedure: Determination of Compound Affinity at Human Recombinant CCR3 Receptors Assessed by Competition Of [^3H]-4-(2,4-dichloro-3-methylphenoxy)-1′-[4-(methylsulfonyl)benzoyl]-1,4′-bipiperidine for CHO-K1 Cell Membranes In Vitro
Membranes, prepared from CHO-K1 cells stably expressing recombinant human CCR3, suspended in assay buffer (50 mM Tris-Base, pH 7.4; containing sodium chloride (100 mM) and magnesium chloride (2 mM)) were incubated in the presence of 2 nM [^3H]-4-(2,4-dichloro-3-methylphenoxy)-1′-[4-(methylsulfonyl)benzoyl]-1,4′-bipiperidine, along with vehicle (1% (v/v) DMSO), 4-(4-chloro-3-methylphenoxy)-1′-[2-(methylsulfonyl)benzoyl]-1,4′-bipiperidine (to define non-specific binding) or test compound for 2 h at 37° C. in round bottomed 96-well plates. The plates were then filtered onto GF/B filter plates, pre-soaked for 1 hour in plate-coating solution (0.3% (w/v) polyethylenimine, 0.2% (w/v) BSA in de-ionised water), using a 96-well plate Tomtec cell harvester. Four washes (250 μL) with wash buffer (50 mM Tris-Base, pH 7.4 containing sodium chloride (500 mM) and magnesium chloride (2 mM)) were performed at 4° C. to remove unbound radioactivity. Plates were dried and MicroScint-O (50 μL) was added to each well. The plates were sealed (TopSeal A) and filter-bound radioactivity was measured with a scintillation counter (TopCount, Packard BioScience) using a 1 minute counting protocol.
Specific binding was determined from values of the control wells minus the values for the NSB wells for each assay plate. pIC50 values were calculated using a four parameter logistic fit (where pIC50 is defined as the negative logarithm of the concentration of compound required for 50% reduction in specific [^3H]-4-(2,4-dichloro-3-methylphenoxy)-1′-[4-(methylsulfonyl)benzoyl]-1,4′-bipiperidine binding). Data were presented as mean pKi values (calculated by applying a Cheng-Prussof correction to pIC50 values) from a minimum of 2 separate experiments.
For orientation: Displacement assays read how much labelled ligand stays bound in the presence of the test substance.

The term CLint scaled denotes the rate of metabolic loss divided by the concentration. In the case of `O=C(CCc1ccc(C(=O)O)cc1)NC1CCN(Cc2ccc(Cl)c(Cl)c2)CC1` [Example 2, 4-{2-[1-(3,4-Dichloro-benzyl)-piperidin-4-ylcarbamoyl]-ethyl}-benzoic acid], the CLint scaled at 1 µM in data set [1] is < 3 mL/min/kg. Moreover, in data set [2], the Ki is 63.1 nM.

For `O=C(CCc1cccc(C(=O)O)c1)NC1CCN(Cc2ccc(Cl)c(Cl)c2)CC1` [Example 4, 3-{2-[1-(3,4-Dichloro-benzyl)-piperidin-4-ylcarbamoyl]-ethyl}-benzoic acid], the CLint scaled at 1 µM in data set [1] is < 3 mL/min/kg. In addition, in data set [2], the Ki was 79.4 nM.

As to `O=C(CCc1ccc2cc(C(=O)O)ccc2c1)NC1CCN(Cc2ccc(Cl)c(Cl)c2)CC1` [Example 6, 6-{2-[1-(3,4-Dichloro-benzyl)-piperidin-4-ylcarbamoyl]-ethyl}-naphthalene-2-carboxylic acid], the CLint scaled at 1 µM in data set [1] is < 3 mL/min/kg. The Ki in data set [2] is 15.8 nM.
